# Assay results reported in patent US12152031B2, “Biodefense agents” (priority 2018, dated 2024).
# What was measured:
# Assay type in all cases: cell-based
# Burkholderia mallei = assay: microbe, parasite or virus in culture; conditions: for MIC: read-out: MIC range
# [1] = system: Burkholderia pseudomallei; assay: microbe, parasite or virus in culture; conditions: for MIC50 / MIC90 / MIC: Burkholderia pseudomallei; for MIC: read-out: MIC range
# Enterobacteriaceae = system: Enterobacteriaceae
# E. coli DH10B = assay: microbe, parasite or virus in culture; conditions: Escherichia coli
# [2] = system: E. coli DH10B mcr-1 transformant; assay: microbe, parasite or virus in culture; conditions: Escherichia coli
# P. aeruginosa = assay: microbe, parasite or virus in culture; conditions: Pseudomonas aeruginosa, read-out: MICs
# Yersinia pestis = assay: microbe, parasite or virus in culture; conditions: for MIC: read-out: MIC range
# Francisella tularensis = assay: microbe, parasite or virus in culture; conditions: for MIC: read-out: MIC range
# Bacillus anthracis = assay: microbe, parasite or virus in culture; conditions: for MIC: read-out: MIC range
SMILES,MIC50 (Burkholderia mallei),MIC90 (Burkholderia mallei),MIC (Burkholderia mallei),MIC range [1],MIC50 [1],MIC90 [1],peak of unimodal MIC distribution (Enterobacteriaceae),MIC (E. coli DH10B),MIC [2],MIC (P. aeruginosa),MIC50 (Yersinia pestis),MIC90 (Yersinia pestis),MIC (Yersinia pestis),MIC [1],MIC50 (Francisella tularensis),MIC90 (Francisella tularensis),MIC (Francisella tularensis),MIC50 (Bacillus anthracis),MIC90 (Bacillus anthracis),MIC (Bacillus anthracis)
"CC[C@H]1OC(=O)[C@H](C)[C@@H](O[C@H]2C[C@@](C)(OC)[C@@H](O)[C@H](C)O2)[C@H](C)[C@@H](O[C@@H]2O[C@H](C)C[C@H](N(C)C)[C@H]2O)[C@](C)(O)C[C@@H](C)CN(C)[C@H](C)[C@@H](O)[C@]1(C)O [Azithromycin, azithromycin, reference compound]",0.5 µg/mL,1 µg/mL,0.06 to 1 µg/mL,,,,,,,,,,,,,,,,,
"CC(C)(O/N=C(\C(=O)N[C@@H]1C(=O)N2C(C(=O)[O-])=C(C[n+]3ccccc3)CS[C@H]12)c1csc(N)n1)C(=O)O [Ceftazidime, ceftazidime, reference compound]",,,,≤0.03 to 32 µg/mL,1 µg/mL,1 µg/mL,,,,,,,,,,,,,,
"CSc1cc(-n2cc3cc(-c4cc(CCC[C@@H](N)C5CC5)cc(Cl)c4F)[nH]c3nc2=O)ccc1[C@@H]1CCC[C@@H](CCNC(C)=N)N1 [RX-04B, N-(2-((2S,6S)-6-(4-(6-(5-((R)-4-amino-4-cyclopropylbutyl)-3-chloro-2-fluorophenyl)-2-oxo-2,7-dihydro-3H-pyrrolo[2,3-d]pyrimidin-3-yl)-2-(methylthio)phenyl)piperidin-2-yl)ethyl)acetimidamide]",,,,,,,1 µg/mL,0.5 µg/mL,0.5 µg/mL,,,,,,,,,,,
"CC(=N)NCC[C@@H]1CCC[C@@H](c2ccc(-n3cc4cc(-c5cc(CCC[C@@H](N)CO)cc(Cl)c5F)[nH]c4nc3=O)cc2F)N1 [RX-04C, N-(2-((2S,6S)-6-(4-(6-(5-((R)-4-amino-5-hydroxypentyl)-3-chloro-2-fluorophenyl)-2-oxo-2,7-dihydro-3H-pyrrolo[2,3-d]pyrimidin-3-yl)-2-fluorophenyl)piperidin-2-yl)ethyl)acetimidamide]",,,,,,,2 µg/mL,0.5 µg/mL,0.5 µg/mL,≥ 16 µg/mL,,,,,,,,,,
CSc1cc(-n2cc3cc(-c4cc(CCC[C@@H](N)C5CC5)cc(Cl)c4F)[nH]c3nc2=O)ccc1[C@@H]1CCC[C@@H](CCNC(C)=N)N1 [RX-D1],0.12 µg/mL,0.12 µg/mL,0.06 to 0.25 µg/mL,,1 µg/mL,4 µg/mL,,,,,0.12 µg/mL,0.25 µg/mL,0.008 to 0.25 µg/mL,0.5 to 4 µg/mL,0.12 µg/mL,0.25 µg/mL,0.06 to 0.5 µg/mL,0.06 µg/mL,0.06 µg/mL,0.008 to 0.12 µg/mL
CC(=N)NCC[C@@H]1CCC[C@@H](c2ccc(-n3cc4cc(-c5cc(CCC[C@H](C)N)cc(Cl)c5F)[nH]c4nc3=O)cc2)N1CCCO [RX-D2],0.12 µg/mL,0.25 µg/mL,0.06 to 0.5 µg/mL,,> 8 µg/mL,> 8 µg/mL,,,,,0.25 µg/mL,1 µg/mL,0.03 to 1 µg/mL,,0.12 µg/mL,0.25 µg/mL,0.015 to 1 µg/mL,0.06 µg/mL,0.12 µg/mL,0.03 to 0.12 µg/mL
CC(=N)NCC[C@@H]1CCC[C@@H](c2ccc(-n3cc4cc(-c5cc(CCC[C@H](C)N)cc(Cl)c5F)[nH]c4nc3=O)cc2)N1CCCF [RX-D3],0.12 µg/mL,0.25 µg/mL,0.03 to 0.25 µg/mL,,2 µg/mL,4 µg/mL,,,,,0.12 µg/mL,0.25 µg/mL,0.06 to 0.5 µg/mL,0.5 to 8 µg/mL,0.12 µg/mL,0.25 µg/mL,0.015 to 2 µg/mL,0.12 µg/mL,0.12 µg/mL,0.03 to 0.25 µg/mL
C[C@H](N)CCCc1cc(Cl)c(F)c(-c2cc3cn(-c4ccc([C@@H]5CCC[C@@H](CCSC(=N)N)N5)cc4)c(=O)nc3[nH]2)c1 [RX-D4],0.12 µg/mL,0.12 µg/mL,0.03 to 0.12 µg/mL,,1 µg/mL,4 µg/mL,,,,,0.12 µg/mL,0.25 µg/mL,0.004 to 0.5 µg/mL,0.25 to 8 µg/mL,0.03 µg/mL,0.06 µg/mL,0.004 to 0.5 µg/mL,0.06 µg/mL,0.12 µg/mL,0.015 to 0.12 µg/mL
